In US20070149465A1, “COMPOSITIONS AND METHODS FOR PREVENTION AND TREATMENT OF CACHEXIA” (priority 2005, published 2007):

Tests used:
Format in all cases: physicochemical
[1] = Solution osmolality of roxithromycin citrate solutions; conditions: 25° C.
Experimental: The solutions were syringe-filtered and analyzed by HPLC for [roxithromycin]. Roxithromycin Potency was assayed by a reverse-phase HPLC method that meets the requirements of the European Pharmacopeia (EP) Monograph for roxithromycin. Solution pH values were determined per USP <791> and solution osmolality values were determined per USP <785>. Aqueous solubility limits were determined for roxithromycin as a function of buffer type (phosphate versus citrate), buffer concentration, pH, and added co-solvent (ethanol).

[2] = Stability of formoterol fumarate and roxithromycin co-formulated in oral solution; conditions: co-formulated 0.005 mg/mL formoterol fumarate + 2.0 mg/mL roxithromycin, pH 6.0, 20 mM citrate, 4.5% mannitol, 0.1% potassium sorbate
Experimental: Roxithromycin Potency was assayed by a reverse-phase HPLC method that meets the requirements of the European Pharmacopeia (EP) Monograph for roxithromycin.

[3] = Aqueous stability of roxithromycin (% Purity by HPLC); conditions: for Roxithromycin % Purity By Area Normalization: 2 mg/mL, 25° C.
Experimental: Roxithromycin stability was determined for 2 mg/mL [roxithromycin] at 5, 25, and 40° C. as a function of pH and buffer (citrate) concentration. Roxithromycin %Purity was determined by area normalization using a reverse-phase HPLC method that meets the requirements of the EP Monograph. Solution pH values were determined per USP <791>.

In the case of `CC[C@H]1OC(=O)[C@H](C)[C@@H](O[C@H]2C[C@@](C)(OC)[C@@H](O)[C@H](C)O2)[C@H](C)[C@@H](O[C@@H]2O[C@H](C)C[C@H](N(C)C)[C@H]2O)[C@](C)(O)C[C@@H](C)/C(=N\OCOCCOC)[C@H](C)[C@@H](O)[C@]1(C)O` [roxithromycin], the “Solution Osmolaltiy” value ([1]; 20 mM citrate, pH 4) is reported as 43 mOsm/kG, the “Solution Osmolaltiy” value ([1]; 20 mM citrate, pH 5) is reported as 47 mOsm/kG and the “Solution Osmolaltiy” value ([1]; 20 mM citrate, pH 6) is reported as 57 mOsm/kG. The “Solution Osmolaltiy” value ([1]; 20 mM citrate, pH 7) was 60 mOsm/kG, the “Solution Osmolaltiy” value ([1]; 50 mM citrate, pH 4) was 110 mOsm/kG and the “Solution Osmolaltiy” value ([1]; 50 mM citrate, pH 5) was 124 mOsm/kG. For the same compound, the “Solution Osmolaltiy” value ([1]; 50 mM citrate, pH 6) was 139 mOsm/kG, the “Solution Osmolaltiy” value ([1]; 50 mM citrate, pH 7) was 138 mOsm/kG and the “Solution Osmolaltiy” value ([1]; 100 mM citrate, pH 4) was 203 mOsm/kG. The “Solution Osmolaltiy” value ([1]; 100 mM citrate, pH 5) was 243 mOsm/kG, the “Solution Osmolaltiy” value ([1]; 100 mM citrate, pH 6) was 260 mOsm/kG and the “Solution Osmolaltiy” value ([1]; 100 mM citrate, pH 7) was 271 mOsm/kG. The “Solution Osmolaltiy” value ([1]; 200 mM citrate, pH 4) was 366 mOsm/kG, the “Solution Osmolaltiy” value ([1]; 200 mM citrate, pH 5) was 462 mOsm/kG and the “Solution Osmolaltiy” value ([1]; 200 mM citrate, pH 6) was 521 mOsm/kG. The “Solution Osmolaltiy” value ([1]; 200 mM citrate, pH 7) was 532 mOsm/kG, the “Roxithromycin Potency” value ([2]; week 0, 5 ° C.) was 1920 µg/mL and the “Roxithromycin Potency” value ([2]; week 0, 25 ° C.) was 1920 µg/mL. For the same compound, the “Roxithromycin Potency” value ([2]; week 0, 40 ° C.) was 1920 µg/mL, the “Roxithromycin Potency” value ([2]; week 2, 25 ° C.) was 1740 µg/mL and the “Roxithromycin Potency” value ([2]; week 2, 40 ° C.) was 1610 µg/mL. The “Roxithromycin Potency” value ([2]; week 4, 5 ° C.) was 1920 µg/mL, the “Roxithromycin Potency” value ([2]; week 4, 25 ° C.) was 1710 µg/mL and the “Roxithromycin Potency” value ([2]; week 4, 40 ° C.) was 1470 µg/mL. For the same compound, the “stability of aqueous formulation” value ([3]; 2 mg/mL roxithromycin, 20 mM citrate buffer at pH 6) was “satisfactory”, the “Roxithromycin % Purity By Area Normalization” value ([3]; citrate pH 4, 20 mM, 0 mo) was 81% and the “Roxithromycin % Purity By Area Normalization” value ([3]; citrate pH 4, 20 mM, 0.3 mo) was 74%. For the same compound, the “Roxithromycin % Purity By Area Normalization” value ([3]; citrate pH 4, 20 mM, 0.5 mo) was 70%, the “Roxithromycin % Purity By Area Normalization” value ([3]; citrate pH 4, 20 mM, 0.9 mo) was 65% and the “Roxithromycin % Purity By Area Normalization” value ([3]; citrate pH 4, 20 mM, 1.5 mo) was 56%. For the same compound, the “Roxithromycin % Purity By Area Normalization” value ([3]; citrate pH 4, 20 mM, 2.6 mo) was 48%, the “Roxithromycin % Purity By Area Normalization” value ([3]; citrate pH 4, 20 mM, 5.3 mo) was 28% and the “Roxithromycin % Purity By Area Normalization” value ([3]; citrate pH 4, 20 mM, 7.3 mo) was 15%. For the same compound, the “Roxithromycin % Purity By Area Normalization” value ([3]; citrate pH 4, 50 mM, 0 mo) was 78%, the “Roxithromycin % Purity By Area Normalization” value ([3]; citrate pH 4, 50 mM, 0.3 mo) was 71% and the “Roxithromycin % Purity By Area Normalization” value ([3]; citrate pH 4, 50 mM, 0.5 mo) was 65%. For the same compound, the “Roxithromycin % Purity By Area Normalization” value ([3]; citrate pH 4, 50 mM, 0.9 mo) was 59%, the “Roxithromycin % Purity By Area Normalization” value ([3]; citrate pH 4, 50 mM, 1.5 mo) was 47% and the “Roxithromycin % Purity By Area Normalization” value ([3]; citrate pH 4, 50 mM, 2.6 mo) was 33%. The “Roxithromycin % Purity By Area Normalization” value ([3]; citrate pH 4, 50 mM, 5.3 mo) was 15%, the “Roxithromycin % Purity By Area Normalization” value ([3]; citrate pH 4, 50 mM, 7.3 mo) was 6% and the “Roxithromycin % Purity By Area Normalization” value ([3]; citrate pH 5, 20 mM, 0 mo) was 96%. For the same compound, the “Roxithromycin % Purity By Area Normalization” value ([3]; citrate pH 5, 20 mM, 0.3 mo) was 88%, the “Roxithromycin % Purity By Area Normalization” value ([3]; citrate pH 5, 20 mM, 0.5 mo) was 84% and the “Roxithromycin % Purity By Area Normalization” value ([3]; citrate pH 5, 20 mM, 0.9 mo) was 80%. The “Roxithromycin % Purity By Area Normalization” value ([3]; citrate pH 5, 20 mM, 1.5 mo) was 77%, the “Roxithromycin % Purity By Area Normalization” value ([3]; citrate pH 5, 20 mM, 2.6 mo) was 75% and the “Roxithromycin % Purity By Area Normalization” value ([3]; citrate pH 5, 20 mM, 5.3 mo) was 75%. For the same compound, the “Roxithromycin % Purity By Area Normalization” value ([3]; citrate pH 5, 20 mM, 7.3 mo) was 71%, the “Roxithromycin % Purity By Area Normalization” value ([3]; citrate pH 5, 50 mM, 0 mo) was 92% and the “Roxithromycin % Purity By Area Normalization” value ([3]; citrate pH 5, 50 mM, 0.3 mo) was 82%. For the same compound, the “Roxithromycin % Purity By Area Normalization” value ([3]; citrate pH 5, 50 mM, 0.5 mo) was 78%, the “Roxithromycin % Purity By Area Normalization” value ([3]; citrate pH 5, 50 mM, 0.9 mo) was 77% and the “Roxithromycin % Purity By Area Normalization” value ([3]; citrate pH 5, 50 mM, 1.5 mo) was 74%. The “Roxithromycin % Purity By Area Normalization” value ([3]; citrate pH 5, 50 mM, 2.6 mo) was 71%, the “Roxithromycin % Purity By Area Normalization” value ([3]; citrate pH 5, 50 mM, 5.3 mo) was 67% and the “Roxithromycin % Purity By Area Normalization” value ([3]; citrate pH 5, 50 mM, 7.3 mo) was 59%. For the same compound, the “Roxithromycin % Purity By Area Normalization” value ([3]; citrate pH 5, 100 mM, 0 mo) was 90%, the “Roxithromycin % Purity By Area Normalization” value ([3]; citrate pH 5, 100 mM, 0.3 mo) was 79% and the “Roxithromycin % Purity By Area Normalization” value ([3]; citrate pH 5, 100 mM, 0.5 mo) was 76%. The “Roxithromycin % Purity By Area Normalization” value ([3]; citrate pH 6, 20 mM, 0 mo) was 98% and the “Roxithromycin % Purity By Area Normalization” value ([3]; citrate pH 6, 20 mM, 0.3 mo) was 97%.
